Article PMC10473604 (bioRxiv, 2023)

System: HLA-A2
Experiment: HLA-I binding assay with biotin-tagged HLA-A2 monomers
Set-up: species or system human
Conditions: in-silico predicted HLA-A2 binders not listed in Fig. 1G

Sequence	HLA-A2 binding in vitro, in words
GIIYIIYKL [CVB1–2-3–4-5–6_1502–1510]	did not confirm as binders
KLPDALSQM [CVB1_150–158]	did not confirm as binders
VIASYPWPI [CVB1–2-3–5-6_2051–2059]	did not confirm as binders
VMGDALGSV [ZnT8_245–253]	binding
